# According to patent publication US9085559B2, “Triazine-aryl-bis-indoles and process for preparation thereof” (COUNCIL OF SCIENTIFIC & INDUSTRIAL RESEARCH, priority 2010, dated 2015):
# Several values for one entry are separate records, joined by “and”; a condition that tells them apart may be missing. Identical values can stand only once. Like-named read-outs stand apart in the source and are kept apart here.
# Tests used:
# [1] = system: BALB/c 3T3 cell line; assay: Balb/c 3T3 Neutral Red Uptake (NRU) cytotoxicity assay; type: cell-based; settings: for toxicity: NRU cytotoxicity test (FIG. 8)
# From the text: (§1) FIG. 8. IICT-TA67 is not toxic. To evaluate the cytotoxicity of test chemical (IICT-TA67) BALB/c 3T3 cell line was used for Neutral Red Uptake (NRU) cytotoxicity test. The test result has been used to determine IC50 for IICT-TA67 and acute oral toxicity (LD50) in rodent was predicted.
# (§2) Basal cytotoxicity of IICT-TA67 has been performed to measure IC50 and thereafter predict in vivo acute oral LD50 values in rodent by using Halle's Registry of cytotoxicity (RC) prediction model: log (LD50)=0.435×log (IC50)+0.625 (Halle, 1998; Spielmann et al., 1999). Balb/c 3T3 Neutral Red Dye Uptake (NRU) cytotoxicity assay procedure was adopted (Liebsch & Spielmann 1995). In brief 3T3 cell were grown in 96 well microtitre plates and exposed to IICT-TA-67. After 48-hour incubation, the test material was removed and Neutral red (NR) solution was applied to the cells. The cells were incubated again, the excess NR solution was removed and finally NR was eluted from the cells. The NRU was determined by using a microtitre plate reader to measure the optical density at 540 nm of the eluted dye in 96 well plate. A calculation of cell viability expressed as NRU was made for each concentration of the test chemical by using the mean NRU of 6 replicate values per test concentration. The cell viability value was compared with the mean NRU of all vehicle control values and relative cell viability was then expressed as percent of untreated vehicle control. […] Although the percentage of viability is slightly more than 95% at 50 μg/ml of IICT-67, 30 μg/ml (% viability of cells is 98%)
# [2] = as above; type: cell-based; settings: mouse
# From the text: as §1, §2
# [3] = Pharmacokinetic study, oral and i.v. route; type: in vivo, swiss mice; settings: mice; for half-life: read-out: T ½ (converted)
# Protocol: FIG. 6. Pharmacokinetics of IICT-TA67 through oral route. FIG. 7. Pharmacokinetics of IICT-TA67 through intravenous (i.v) route in mice. IICT-TA67 (20 mg/kg) was administered orally (or 10 mg/kg by i.v. route) as a fine suspension in 1% Gum acacia. Blood samples were drawn from retro-orbital plexus at designated times in pre-labeled heparinised tubes and centrifuged (3500 rpm×10 minutes) to obtain the plasma. Blood samples were collected at 0, 5, 15 and 30 min, and 1, 2, 4, 6, 8, 16 and 24 hrs post-administration after oral/iv route. HPLC determinations were done on Shimadzu chromatograph (Model: LC-10 Atvp equipped with a diode array detector). The Molecule ICT-TA67 was determined at 276 nm using RP-18 column (5 μm×25 cm). Mobile phase consisted of acetonitrile: water (55:45) with a flow rate of 1.0 ml/min.
# Animals. Healthy swiss mice of both the sexes (25-30) were used. The animals were kept (3/cage) under controlled conditions (temp 26±2° C.; relative humidity 50±5%; 12 h light/dark cycle) and maintained on pelleted rodent diet (Ashirwad Industries Ltd. Chandigarh, India). Water was provided ad libitum. Institutional Animal Ethics committee approved the animal experiments. Animals were fasted for 16 hours before use.
# Step 1: Dosing: IICT-TA67 (20 mg/kg) was administered orally (or 10 mg/kg by i.v.route) as a fine suspension in 1% Gum acacia. Blood samples were drawn from retro-orbital plexus at designated times in pre-labeled heparinised tubes and centrifuged (3500 rpm×10 minutes) to obtain the plasma. Blood samples were collected at 0, 5, 15 and 30 min, and 1, 2, 4, 6, 8, 16 and 24 hrs post-administration after oral/iv route.
# Step 2: HPLC determinations: Aliquots of plasma were mixed with acetonitrile (1:2), vortexed for two minutes (2500 rpm) and centrifuge at 5000 rpm for 10 min. The organic layer was collected and evaporated to dryness using solvent evaporator (Model: SPD 111V, Thermo Electron Corporation, MA). The dried samples were reconstituted in mobile phase for HPLC analysis. In a similar manner samples were also prepared from aliquots of plasma collected from untreated animals which were spiked with molecule 67 (0.25 μg-10 μg/ml). […] Reproducibility of the method was defined by both intra-, and inter-day variance. The retention time of Mol. 67 was 10.688 min, at which no other interfering peak was observed. The lower limit of detection (LOD) was 11 ng/ml; limit of quantitation (LOQ) was 32 ng/ml; recovery was 90±2%.
# HPLC determinations were done on Shimadzu chromatograph (Model: LC-10 Atvp equipped with a diode array detector). Molecule 67 was determined at 276 nm using RP-18 column (5 μm×25 cm). Mobile phase consisted of acetonitrile: water (55:45) with a flow rate of 1.0 ml/min.
# Step 3: Calculating Bioavailability indices: A concentration-time curve for Molecule 67 was established and pharmacokinetic parameters AUC, Cmax, and tmax were determined by a non-compartmental analysis using TOPFIT software package. Absolute bioavailability was determined using the following formula: AUCoral×doseiv/AUCiv×Doseoral.
# [4] = both sexes, Swiss, mouse, plasma, iv, 10 mg/kg
# [5] = both sexes, Swiss, mouse, plasma, oral, 20 mg/kg
structure (smiles),measurement,setting,value
"COc1ccc(C(c2[nH]c3ccccc3c2CC(=O)O)c2[nH]c3ccccc3c2CC(=O)O)cc1Oc1nc(NC2CC2)nc(NC2CC2)n1 [Compound 7, 2,2′-[2,2′-3-(4,6-bis-cyclopropylamino)-1,3,5-triazin-2-yl-oxy-4-methoxy-phenyl]-methylene-bis-(1H-indole-3,3-diyl)-diacetic acid]",% viability of cells,[1]; 30 μg/ml,98%
same,percentage of viability,[1]; 50 μg/ml,more than 95%
same,toxicity,[1]; listed as IICT-67,does not seem to be toxic to endothelial cells
same,toxicity,[1]; listed as IICT-TA67,not toxic
same,IC50 at 48 h,[2],32 µg/mL
same,Tmax,[3]; [4],0.167 h
same,half-life,"[3]; both sexes, Swiss, mouse, plasma, iv, 10 mg/kg, i.v., 10 mg/kg",0.93 h
same,AUC,[3]; [4],358 ng·h/mL
same,Cmax,[3]; [4],332 ng/mL
same,clearance,[3]; [4],466 mL/min and 466 mL/min/kg
same,AUC(0-t),"[3]; both sexes, Swiss, mouse, plasma, iv, 10 mg/kg (Table 2)",358 ng·h/mL
same,Vd,"[3]; both sexes, Swiss, mouse, plasma, iv, i.v., 10 mg/kg, read-out: Vd",37.5 L and 37.5 L/kg
same,bioavailability,"[3]; both sexes, Swiss, mouse, plasma, oral, AUCoral×doseiv/AUCiv×Doseoral, read-out: Absolute bioavailability (F)",70.3%
same,Tmax,"[3]; both sexes, Swiss, mouse, plasma, po, 20 mg/kg",3 h
same,Tmax,"[3]; both sexes, Swiss, mouse, plasma, po, 20 mg/kg, 20 mg/kg (Table 2)",2 h
same,half-life,"[3]; both sexes, Swiss, mouse, plasma, po, 20 mg/kg, oral, 20 mg/kg",4.26 h
same,AUC,[3]; [5],503 ng·h/mL
same,Cmax,[3]; [5],107 ng/mL
same,AUC(0-t),"[3]; both sexes, Swiss, mouse, plasma, oral, 20 mg/kg (Table 2)",503 ng·h/mL
same,T ½,"[3]; i.v., 10 mg/kg, listed as IICT-TA67, 10 mg/kg",1.5 h
same,Vd,"[3]; oral, 20 mg/kg, listed as TA-67, 20 mg/kg",474 L
